Experiment [1] deals with MCF-7 cells. Kind of experiment: Cell Growth Inhibition, MCF-7 (CellTiterGlo, 6 days). The class given is cell-based. The settings on record: Homo sapiens, MCF7, 144 h, MCF-7, 6-day treatment. The method in brief: (§1)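 IC50 from four-parameter, variable-slope fits of % growth inhibition, derived from CellTiterGlo 2.0 luminescence relative to control. Compounds, usually 10-10,000 nM in half-log steps, stayed 6 days at 37 °C, 5% CO2 with 500 MCF-7 or OVCAR-3 cells/well in 10% FBS RPMI.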
(In general: ATP-based viability assays read luminescence as a measure of living cells.)

Experiment [2] concerns OVCAR-3 cells. As to the kind of experiment: Cell Growth Inhibition, OVCAR-3 (CellTiterGlo, 6 days). The settings on record: Homo sapiens, 144 h, OVCAR-3, 6-day treatment. The class given is cell-based. The method in brief:
as §1

Experiment [3] addresses CDK4/Cyclin D1 (Homo sapiens (Human), UniProt P11802). As to the kind of experiment: CDK4/Cyclin D1 CHEF Assay (AQT0258 peptide). Format: biochemical. The note with it: 200 uM ATP, read-out: CDK4/ CyclinD1 AQT IC50. The method in brief: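 Sox-labelled peptide AQT0258 phosphorylation read as chelation-enhanced fluorescence (ex 360/em 485 nm) with Mg(II). Enzyme preincubated with inhibitor 30 min at 22°C, substrate added, 3 h at 22°C; IC50 from four-parameter fit of fractional velocity versus inhibitor concentration.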

For experiment [4], the target named is CDK1/Cyclin B1 (Homo sapiens (Human), UniProt P06493). Kind of experiment: CDK1/Cyclin B1 ADP-Glo Kinase Assay. The class given is biochemical. The note with it: ADP-Glo, 80 uM ATP; read-out: CDK1 Cyclin B1 IC50. The method in brief:
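ADP-Glo luminescent readout of ADP production, with IC50 fitted by a four-parameter equation to fractional velocity against inhibitor concentration. Reaction started with ATP-containing substrate after a 30-minute enzyme–inhibitor pre-incubation and stopped after 90 minutes, both at room temperature.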
A general note: ADP-Glo first removes unused ATP, then detects ADP through luciferase.

Experiment [5] addresses CDK2/Cyclin E1 (Homo sapiens (Human), UniProt P24941). As to the kind of experiment: CDK2/Cyclin E1 Full length ADP-Glo Kinase Assay. The class given is biochemical. The note with it: 20 uM ATP, read-out: CDK2/ CyclinE1 IC50. The procedure, abridged:
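ADP-Glo luminescence (ATP depletion, then ADP-to-light conversion) quantified kinase turnover after a 90 min room-temperature reaction started by ATP/substrate, following 30 min enzyme–inhibitor preincubation. Enzyme: full-length CDK2/cyclin E1; IC50 fitted with a four-parameter equation on fractional velocity.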

Experiment [6] has as its target CDK6/Cyclin D3 (Homo sapiens (Human), UniProt Q00534). Kind of experiment: CDK6/Cyclin D3 ADP-Glo Kinase Assay. The class given is biochemical. The settings on record: 100 uM ATP, read-out: CDK6/ CyclinD3 IC50. The method in brief: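 ADP-Glo luminescence measured ADP produced by CDK6/Cyclin D3 in a 90-min room-temperature reaction started with ATP-containing substrate, after 30-min enzyme–inhibitor pre-incubation. Fractional velocity was plotted against inhibitor concentration and fitted to a four-parameter IC50 model.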

Sequence of CDK1/Cyclin B1 (P06493 whole entry): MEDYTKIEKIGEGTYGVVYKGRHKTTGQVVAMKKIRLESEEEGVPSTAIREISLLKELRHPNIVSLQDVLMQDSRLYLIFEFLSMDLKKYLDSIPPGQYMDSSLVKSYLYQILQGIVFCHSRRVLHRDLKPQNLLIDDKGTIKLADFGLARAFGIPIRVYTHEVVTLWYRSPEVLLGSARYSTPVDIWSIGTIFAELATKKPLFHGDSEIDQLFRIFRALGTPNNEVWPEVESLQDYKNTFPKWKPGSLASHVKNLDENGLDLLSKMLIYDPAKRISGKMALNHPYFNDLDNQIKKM
Sequence of CDK1/Cyclin B1 (P14635 whole entry partner): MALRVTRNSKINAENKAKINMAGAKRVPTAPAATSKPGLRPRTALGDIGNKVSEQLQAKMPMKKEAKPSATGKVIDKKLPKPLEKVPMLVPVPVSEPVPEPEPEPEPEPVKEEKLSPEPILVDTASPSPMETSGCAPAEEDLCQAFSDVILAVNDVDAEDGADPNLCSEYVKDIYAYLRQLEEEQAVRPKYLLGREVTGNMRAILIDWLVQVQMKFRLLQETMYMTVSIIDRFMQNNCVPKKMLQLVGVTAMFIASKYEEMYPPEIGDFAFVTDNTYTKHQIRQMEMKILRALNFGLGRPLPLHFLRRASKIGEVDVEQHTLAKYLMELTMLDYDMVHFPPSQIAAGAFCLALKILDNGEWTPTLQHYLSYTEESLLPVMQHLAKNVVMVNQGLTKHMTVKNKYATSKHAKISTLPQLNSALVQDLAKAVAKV
Sequence of CDK6/Cyclin D3 (Q00534 whole entry): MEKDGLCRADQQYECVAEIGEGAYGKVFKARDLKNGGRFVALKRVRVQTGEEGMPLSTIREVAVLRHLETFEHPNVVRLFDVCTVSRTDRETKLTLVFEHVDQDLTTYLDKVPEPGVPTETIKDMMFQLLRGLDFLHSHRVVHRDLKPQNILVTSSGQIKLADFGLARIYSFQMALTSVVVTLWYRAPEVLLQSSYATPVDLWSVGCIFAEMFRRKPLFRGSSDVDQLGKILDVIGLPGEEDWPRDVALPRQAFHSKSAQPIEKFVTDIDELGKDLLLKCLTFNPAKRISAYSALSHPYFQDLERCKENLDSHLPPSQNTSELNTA
Sequence of CDK6/Cyclin D3 (P30281 whole entry partner): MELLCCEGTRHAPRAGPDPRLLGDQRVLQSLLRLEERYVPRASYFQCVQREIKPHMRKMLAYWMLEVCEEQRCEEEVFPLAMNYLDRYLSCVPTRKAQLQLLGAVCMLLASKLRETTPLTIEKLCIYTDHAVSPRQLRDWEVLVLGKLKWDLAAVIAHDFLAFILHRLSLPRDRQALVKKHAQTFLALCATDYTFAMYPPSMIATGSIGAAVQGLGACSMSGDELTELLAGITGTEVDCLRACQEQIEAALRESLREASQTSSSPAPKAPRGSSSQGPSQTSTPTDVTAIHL
Sequence of CDK4/Cyclin D1 (P11802 whole entry): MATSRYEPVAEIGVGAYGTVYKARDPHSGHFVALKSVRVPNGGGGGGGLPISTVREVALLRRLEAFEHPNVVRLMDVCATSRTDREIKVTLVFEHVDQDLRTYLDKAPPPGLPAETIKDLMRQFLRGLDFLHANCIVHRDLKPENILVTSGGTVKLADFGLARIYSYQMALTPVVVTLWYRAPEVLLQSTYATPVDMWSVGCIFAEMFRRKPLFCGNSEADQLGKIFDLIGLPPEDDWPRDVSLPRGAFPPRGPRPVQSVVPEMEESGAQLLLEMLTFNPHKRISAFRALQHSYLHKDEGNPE
Sequence of CDK4/Cyclin D1 (P24385 whole entry partner): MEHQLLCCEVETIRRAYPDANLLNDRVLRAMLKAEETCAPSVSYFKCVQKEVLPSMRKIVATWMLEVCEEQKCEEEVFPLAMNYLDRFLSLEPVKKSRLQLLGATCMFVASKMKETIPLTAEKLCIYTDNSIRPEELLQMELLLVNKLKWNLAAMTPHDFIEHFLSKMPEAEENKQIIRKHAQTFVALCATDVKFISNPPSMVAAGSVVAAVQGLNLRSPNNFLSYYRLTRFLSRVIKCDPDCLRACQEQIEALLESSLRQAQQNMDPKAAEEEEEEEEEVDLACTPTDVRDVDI

Consider `COCCN1CC2(C1)CN(c1nc(C3CC3)cc3cnc(NC4CCN(S(=O)(=O)CC5CCC5)CC4)nc13)C2` [Compound 64, N-(1-((cyclobutylmethyl)sulfonyl)piperidin-4-yl)-6-cyclopropyl-8-(6-(2-methoxyethyl)-2,6-diazaspiro[3.3]heptan-2-yl)pyrido[3,4-d]pyrimidin-2-amine], for which the IC50 in experiment [1] is above 2000 nM; in experiment [2], above 2000 nM; in experiment [3], below 200 nM; in experiment [4], 500 to 2000 nM; in experiment [5], below 200 nM; in experiment [6] it was 200 to 500 nM.
With `CS(=O)(=O)N1CCC(Nc2ncc3cc(C(F)F)nc(N4CC5(CNCCC5(F)F)C4)c3n2)CC1` [Compound 65, 8-(9,9-difluoro-2,6-diazaspiro[3.5]nonan-2-yl)-6-(difluoromethyl)-N-(1-(methylsulfonyl)piperidin-4-yl)pyrido[3,4-d]pyrimidin-2-amine], the IC50 is 200 to 500 nM in experiment [1]; 200 to 500 nM in experiment [2]; below 200 nM in experiment [3]; below 200 nM in experiment [4]; below 200 nM in experiment [5]; below 200 nM in experiment [6].
As for `Cc1cc2cnc(NC3CCN(S(=O)(=O)C4CC4)CC3)nc2c(N2CC3(CC(O)C3)C2)n1` [Compound 66, 2-(2-((1-(cyclopropylsulfonyl)piperidin-4-yl)amino)-6-methylpyrido[3,4-d]pyrimidin-8-yl)-2-azaspiro[3.3]heptan-6-ol], the IC50 was 500 to 2000 nM in experiment [1]; 500 to 2000 nM in experiment [2]; below 200 nM in experiment [3]; 500 to 2000 nM in experiment [4]; below 200 nM in experiment [5]; below 200 nM in experiment [6].
Turning to `Cc1cc2cnc(NC3CCN(S(=O)(=O)CCC4(C)CC4)CC3)nc2c(N2CC(F)(F)C3(CNC3)C2)n1` [Compound 67, 8-(8,8-difluoro-2,6-diazaspiro[3.4]octan-6-yl)-6-methyl-N-(1-((2-(1-methylcyclopropyl)ethyl)sulfonyl)piperidin-4-yl)pyrido[3,4-d]pyrimidin-2-amine], the IC50 in experiment [1] is above 2000 nM; in experiment [2], above 2000 nM; in experiment [3], below 200 nM; in experiment [4], 200 to 500 nM; in experiment [5] it was below 200 nM; in experiment [6] it was 200 to 500 nM.
As to `CS(=O)(=O)N1CCC(Nc2ncc3cc(C4CC4)nc(C4CC5(CNCCO5)C4)c3n2)CC1` (stereo not drawn) [Compound 70, 6-cyclopropyl-N-(1-(methylsulfonyl)piperidin-4-yl)-8-(5-oxa-8-azaspiro[3.5]nonan-2-yl)pyrido[3,4-d]pyrimidin-2-amine], the IC50 in experiment [1] was 500 to 2000 nM; in experiment [2] it was 500 to 2000 nM; in experiment [3], below 200 nM; in experiment [4], below 200 nM; in experiment [5], below 200 nM; in experiment [6] it was below 200 nM.
On to `COC1CC2(C1)CN(c1nc(C)cc3cnc(NC4CCN(S(=O)(=O)C5CC5)CC4)nc13)C2` [Compound 71, N-(1-(cyclopropylsulfonyl)piperidin-4-yl)-8-(6-methoxy-2-azaspiro[3.3]heptan-2-yl)-6-methylpyrido[3,4-d]pyrimidin-2-amine], for which the IC50 is above 2000 nM in experiment [1]; above 2000 nM in experiment [2]; below 200 nM in experiment [3]; 200 to 500 nM in experiment [4]; below 200 nM in experiment [5]; below 200 nM in experiment [6].
`Cc1cc2cnc(NC3CCN(S(=O)(=O)C4CC4)CC3)nc2c(N2CC(N3CC(F)C3)C2)n1` [Compound 72, N-(1-(cyclopropylsulfonyl)piperidin-4-yl)-8-(3-fluoro-[1,3′-biazetidin]-l′-yl)-6-methylpyrido[3,4-d]pyrimidin-2-amine]: the IC50 in experiment [1] is above 2000 nM; in experiment [2], above 2000 nM; in experiment [3], 200 to 500 nM; in experiment [4] it was 500 to 2000 nM; in experiment [5], below 200 nM; in experiment [6] it was 200 to 500 nM.
In the case of `Cc1cc2cnc(NC3CCN(S(C)(=O)=O)CC3)nc2c(N2CC3(CC(O)C3)C2)n1` [Compound 73, 2-(6-methyl-2-((1-(methylsulfonyl)piperidin-4-yl)amino)pyrido[3,4-d]pyrimidin-8-yl)-2-azaspiro[3.3]heptan-6-ol], the IC50 is above 2000 nM in experiment [1]; above 2000 nM in experiment [2]; below 200 nM in experiment [3]; 500 to 2000 nM in experiment [4]; below 200 nM in experiment [5]; 200 to 500 nM in experiment [6].
With `Cc1cc2cnc(NC3CCN(S(=O)(=O)C4CC4)CC3)nc2c(N2CC(CS(C)(=O)=O)C2)n1` [Compound 74, N-(1-(cyclopropylsulfonyl)piperidin-4-yl)-6-methyl-8-(3-((methylsulfonyl)methyl)azetidin-1-yl)pyrido[3,4-d]pyrimidin-2-amine], the IC50 in experiment [1] is above 2000 nM; in experiment [2], above 2000 nM; in experiment [3], 200 to 500 nM; in experiment [4] it was 500 to 2000 nM; in experiment [5] it was below 200 nM; in experiment [6], 200 to 500 nM.
Regarding `COC1CC2(C1)CN(c1nc(C3CC3)cc3cnc(NC4CCN(S(C)(=O)=O)CC4)nc13)C2` [Compound 75, 6-cyclopropyl-8-(6-methoxy-2-azaspiro[3.3]heptan-2-yl)-N-(1-(methylsulfonyl)piperidin-4-yl)pyrido[3,4-d]pyrimidin-2-amine], the IC50 in experiment [1] was above 2000 nM; in experiment [2], above 2000 nM; in experiment [3], below 200 nM; in experiment [4] it was above 2000 nM; in experiment [5] it was below 200 nM; in experiment [6], below 200 nM.
Consider `COC1CC2(C1)CN(c1nc(C)cc3cnc(NC4CCN(S(C)(=O)=O)CC4)nc13)C2` [Compound 76, 8-(6-methoxy-2-azaspiro[3.3]heptan-2-yl)-6-methyl-N-(1-(methylsulfonyl)piperidin-4-yl)pyrido[3,4-d]pyrimidin-2-amine], for which the IC50 was 500 to 2000 nM in experiment [1]; above 2000 nM in experiment [2]; below 200 nM in experiment [3]; 200 to 500 nM in experiment [4]; below 200 nM in experiment [5]; below 200 nM in experiment [6].
With `Cc1cc2cnc(NC3CCN(S(C)(=O)=O)CC3)nc2c(N2CC3(CCC(=O)N3)C2)n1` [Compound 77, 2-(6-methyl-2-((1-(methylsulfonyl)piperidin-4-yl)amino)pyrido[3,4-d]pyrimidin-8-yl)-2,5-diazaspiro[3.4]octan-6-one], the IC50 was above 2000 nM in experiment [1]; above 2000 nM in experiment [2]; below 200 nM in experiment [3]; 200 to 500 nM in experiment [4]; below 200 nM in experiment [5]; below 200 nM in experiment [6].
For the molecule `Cc1cc2cnc(NC3CCN(S(=O)(=O)C4CC4)CC3)nc2c(N2CC3(C2)CC(C)(O)C3)n1` [Compound 78, 2-(2-((1-(cyclopropylsulfonyl)piperidin-4-yl)amino)-6-methylpyrido[3,4-d]pyrimidin-8-yl)-6-methyl-2-azaspiro[3.3]heptan-6-ol], the IC50 is 500 to 2000 nM in experiment [1]; 500 to 2000 nM in experiment [2]; below 200 nM in experiment [3]; 200 to 500 nM in experiment [4]; below 200 nM in experiment [5]; 200 to 500 nM in experiment [6].
`Cc1cc2cnc(NC3CCN(S(C)(=O)=O)CC3)nc2c(N2CC3(C2)CC(C)(O)C3)n1` [Compound 79, 6-methyl-2-(6-methyl-2-((1-(methylsulfonyl)piperidin-4-yl)amino)pyrido[3,4-d]pyrimidin-8-yl)-2-azaspiro[3.3]heptan-6-ol]: the IC50 is above 2000 nM in experiment [1]; 500 to 2000 nM in experiment [2]; below 200 nM in experiment [3]; 200 to 500 nM in experiment [4]; below 200 nM in experiment [5]; 200 to 500 nM in experiment [6].
Consider `COCCN1CC2(CC(c3nc(C4CC4)cc4cnc(NC5CCN(S(=O)(=O)CC6CCC6)CC5)nc34)C2)C1` [Compound 80, N-(1-((cyclobutylmethyl)sulfonyl)piperidin-4-yl)-6-cyclopropyl-8-(2-(2-methoxyethyl)-2-azaspiro[3.3]heptan-6-yl)pyrido[3,4-d]pyrimidin-2-amine], for which the IC50 was above 2000 nM in experiment [1]; above 2000 nM in experiment [2]; below 200 nM in experiment [3]; 500 to 2000 nM in experiment [4]; below 200 nM in experiment [5]; below 200 nM in experiment [6].
Take `Cc1cc2cnc(Nc3ccc(CS(C)(=O)=O)cc3)nc2c(N2CC(O)(C3CC3)C2)n1` [Compound 83, 3-cyclopropyl-1-(6-methyl-2-((4-((methylsulfonyl)methyl)phenyl)amino)pyrido[3,4-d]pyrimidin-8-yl)azetidin-3-ol]: the IC50 was above 2000 nM in experiment [1]; above 2000 nM in experiment [2]; below 200 nM in experiment [3]; 200 to 500 nM in experiment [4]; below 200 nM in experiment [5]; below 200 nM in experiment [6].

The record behind these values is patent US20240034731A1, “AZA-QUINAZOLINE COMPOUNDS AND METHODS OF USE” (Iambic Therapeutics, Inc., priority 2022, published 2024).
